14 compounds from ChEMBL document CHEMBL4325866, “Discovery of a subnanomolar and selective spirocyclic agonist of the glucocorticoid receptor” (Eur J Med Chem, 2019) can be followed below.

Structures are written as SMILES.

One assay deals with T1, Glucocorticoid receptor (Homo sapiens) (UniProt P04150).
T1 sequence (whole entry): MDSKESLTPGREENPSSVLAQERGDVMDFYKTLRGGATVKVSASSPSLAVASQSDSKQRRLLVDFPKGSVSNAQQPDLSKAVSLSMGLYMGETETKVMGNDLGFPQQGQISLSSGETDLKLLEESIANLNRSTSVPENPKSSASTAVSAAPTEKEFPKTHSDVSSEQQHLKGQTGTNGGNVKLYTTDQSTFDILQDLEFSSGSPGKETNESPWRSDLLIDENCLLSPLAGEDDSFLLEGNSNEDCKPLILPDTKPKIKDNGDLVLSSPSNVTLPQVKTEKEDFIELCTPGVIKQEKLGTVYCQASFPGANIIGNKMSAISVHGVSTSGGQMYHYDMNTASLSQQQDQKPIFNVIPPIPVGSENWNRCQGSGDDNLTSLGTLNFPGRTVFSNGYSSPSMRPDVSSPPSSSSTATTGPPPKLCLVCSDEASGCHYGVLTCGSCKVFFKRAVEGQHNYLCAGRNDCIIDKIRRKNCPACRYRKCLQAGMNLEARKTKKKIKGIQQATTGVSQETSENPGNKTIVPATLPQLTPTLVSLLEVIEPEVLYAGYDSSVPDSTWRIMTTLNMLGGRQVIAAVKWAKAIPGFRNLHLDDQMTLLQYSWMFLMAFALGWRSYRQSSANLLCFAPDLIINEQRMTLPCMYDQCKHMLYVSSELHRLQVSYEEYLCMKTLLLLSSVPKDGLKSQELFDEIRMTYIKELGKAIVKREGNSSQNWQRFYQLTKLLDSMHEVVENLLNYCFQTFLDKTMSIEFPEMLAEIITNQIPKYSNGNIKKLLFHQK
As to the kind of experiment: Potency index, ratio of prednisolone IC50 to test compound IC50 for displacement of [3H]dexamethasone from GR in human IM9 cells. Type of assay: cell-based.
As to `O[C@@]1(c2ccccc2)CCCC[C@@]12C=Cc1c(cnn1-c1ccc(F)cc1)C2`, the Ratio IC50 is 30.

Another assay relates to A549. Nature of the assay: Potency index, ratio of prednisolone IC50 to test compound IC50 for inhibition of IL1beta-induced IL6 production in human A549 cells. Type of assay: functional.
With `O[C@@]1(c2ccccc2)CCCC[C@@]12C=Cc1c(cnn1-c1ccc(F)cc1)C2`, the “Ratio IC50” value came out at 10.

The target of another assay is T2, Glucocorticoid receptor (Homo sapiens, UniProt P04150).
T2 sequence (P04150 whole entry): T1 sequence (whole entry)
As to the kind of experiment: Displacement of [3H]dexamethasone from GR in human IM9 cells after 6 hrs by scintillation counting method. Type of assay: cell-based.
`O[C@]1(c2ccccc2)CCCC[C@@]12C=Cc1c(cnn1-c1ccc(F)cc1)C2` yielded an IC50 of 1010 nM.

Compound `Fc1ccc(-n2ncc3c2C=C[C@]2(CCCC=C2c2ccccc2)C3)cc1` had an IC50 of 20 nM.

`O[C@H]1[C@@H](Cc2ccccc2)CCC[C@]12C=Cc1c(cnn1-c1ccc(F)cc1)C2` showed an IC50 of over 1000 nM.

`O[C@]1(Cc2ccccc2)CCCCC[C@@]12C=Cc1c(cnn1-c1ccc(F)cc1)C2` yielded an IC50 of 130 nM.

In turn, `O[C@]1(c2ccccc2)CCCCC[C@@]12C=Cc1c(cnn1-c1ccc(F)cc1)C2` had an IC50 of 9.5 nM.

As for `O[C@@]1(Cc2ccccc2)CCCCC[C@@]12C=Cc1c(cnn1-c1ccc(F)cc1)C2`, the IC50 was 89 nM.

Compound `Oc1ccc(C2=CCCC[C@]23C=Cc2c(cnn2-c2ccc(F)cc2)C3)cc1` had a 50% inhibitory concentration (IC50) of 10 nM.

`C#CC[C@H]1CCC[C@]2(C=Cc3c(cnn3-c3ccc(F)cc3)C2)[C@H]1O` displayed an IC50 of over 1000 nM.

With `O[C@@]1(c2ccccc2)CCC[C@]12C=Cc1c(cnn1-c1ccc(F)cc1)C2`, the IC50 is over 1000 nM.

As to `O[C@@]1(c2ccccc2)CCCC[C@@]12C=Cc1c(cnn1-c1ccc(F)cc1)C2`, the IC50 is 0.41 nM.

In the case of `O[C@H]1C(Cc2ccccc2)(Cc2ccccc2)CCC[C@]12C=Cc1c(cnn1-c1ccc(F)cc1)C2`, the IC50 is over 1000 nM.

In turn, `COc1ccc(C2=CCCC[C@]23C=Cc2c(cnn2-c2ccc(F)cc2)C3)cc1` displayed an IC50 of 135 nM.

As to `O[C@@]1(c2ccccc2)CCCCC[C@@]12C=Cc1c(cnn1-c1ccc(F)cc1)C2`, the IC50 is 6 nM.

Another assay concerns A549. Nature of the assay: Antiinflammatory activity in human A549 cells assessed as inhibition of IL1beta-induced IL6 production preincubated for 30 mins followed by IL1beta-stimulation and measured after 20 hrs by AlphaLisa assay. In kind it is functional, cell-based. For orientation: In Alpha technology, singlet oxygen from a donor bead excites a nearby acceptor bead.
Turning to `C[C@]12C=CC(=O)C=C1CC[C@@H]1[C@@H]2[C@@H](O)C[C@@]2(C)[C@H]1CC[C@]2(O)C(=O)CO` [PREDNISOLONE], the IC50 is 5.8 nM.

Take `O[C@@]1(c2ccccc2)CCCC[C@@]12C=Cc1c(cnn1-c1ccc(F)cc1)C2`: the IC50 is 0.5 nM.

The next assay deals with T3, Progesterone receptor (Homo sapiens, UniProt P06401).
T3 sequence (P06401 whole entry): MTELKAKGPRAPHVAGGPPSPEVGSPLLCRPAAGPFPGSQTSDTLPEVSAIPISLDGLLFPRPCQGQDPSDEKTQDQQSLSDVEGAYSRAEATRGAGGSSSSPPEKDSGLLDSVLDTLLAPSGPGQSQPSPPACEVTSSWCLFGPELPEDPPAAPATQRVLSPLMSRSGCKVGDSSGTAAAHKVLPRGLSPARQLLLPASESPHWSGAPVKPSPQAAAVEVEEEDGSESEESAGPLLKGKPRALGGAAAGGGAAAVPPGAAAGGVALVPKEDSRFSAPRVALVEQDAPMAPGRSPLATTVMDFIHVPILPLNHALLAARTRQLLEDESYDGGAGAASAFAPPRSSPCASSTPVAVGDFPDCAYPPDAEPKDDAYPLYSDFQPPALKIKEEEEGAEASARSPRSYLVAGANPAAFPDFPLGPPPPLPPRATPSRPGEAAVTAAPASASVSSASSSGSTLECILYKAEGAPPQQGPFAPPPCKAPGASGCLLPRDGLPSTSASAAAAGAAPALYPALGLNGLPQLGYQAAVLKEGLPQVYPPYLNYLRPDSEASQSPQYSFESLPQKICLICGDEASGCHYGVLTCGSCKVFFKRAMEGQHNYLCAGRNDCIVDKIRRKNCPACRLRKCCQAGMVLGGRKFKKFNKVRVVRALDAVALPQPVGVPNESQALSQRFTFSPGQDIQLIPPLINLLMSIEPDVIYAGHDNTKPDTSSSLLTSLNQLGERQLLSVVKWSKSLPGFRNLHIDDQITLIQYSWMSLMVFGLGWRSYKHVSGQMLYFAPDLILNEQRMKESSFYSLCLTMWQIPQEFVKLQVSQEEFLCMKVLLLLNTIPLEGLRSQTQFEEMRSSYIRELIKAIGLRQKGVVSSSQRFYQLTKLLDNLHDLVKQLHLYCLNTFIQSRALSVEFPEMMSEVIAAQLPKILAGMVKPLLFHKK
As to the kind of experiment: Displacement of [3H]progesterone from progesterone receptor in human T47D cells after 20 hrs by scintillation counting method. In kind it is cell-based. For orientation: In a radioligand displacement assay an active substance lowers the binding of a labelled ligand.
`Fc1ccc(-n2ncc3c2C=C[C@]2(CCCC=C2c2ccccc2)C3)cc1` showed an IC50 of over 1000 nM.

In the case of `O[C@@]1(c2ccccc2)CCCC[C@@]12C=Cc1c(cnn1-c1ccc(F)cc1)C2`, the IC50 was 780 nM.

`O[C@@]1(c2ccccc2)CCCCC[C@@]12C=Cc1c(cnn1-c1ccc(F)cc1)C2` came in with an IC50 of over 1000 nM.

In the next assay the test system is Blood. As to the kind of experiment: Antiinflammatory activity in Sprague-Dawley rat whole blood assessed as inhibition of LPS-induced TNFalpha production measured after 18 hrs by AlphaLisa assay. Type of assay: functional, tissue-based.
Take `C[C@]12C=CC(=O)C=C1CC[C@@H]1[C@@H]2[C@@H](O)C[C@@]2(C)[C@H]1CC[C@]2(O)C(=O)CO` [PREDNISOLONE]: the IC50 was 4.6 nM.

As to `O[C@@]1(c2ccccc2)CCCC[C@@]12C=Cc1c(cnn1-c1ccc(F)cc1)C2`, the IC50 is 4 nM.

The term IC50 denotes the concentration needed to halve the response being measured.
